Laboratory results taken from ChEMBL document CHEMBL1201862, “PubChem BioAssay data set” (2004).
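Cells were grown in 96-well plates and exposed to each compound for 48 hours at five concentrations; endpoints were interpolated linearly between bracketing concentrations, or set to the highest concentration if not reached. Here, GI50 denotes the concentration required for 50% inhibition of growth.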 The source made the active and inactive calls. No stated cut-off is given here; in the data, active = GI50 up to about 1.1 µM and inactive = higher.

Columns and labels:
Test in all cases: DTP human tumour cell line panel, 48 h
OVCAR-5 = test system: OVCAR-5
A498 = test system: A498
NCI-H460 = test system: NCI-H460
CAKI-1 = test system: CAKI-1
MOLT-4 = test system: MOLT-4
SNB-19 = test system: SNB-19
SK-MEL-5 = test system: SK-MEL-5
SK-OV-3 = test system: SK-OV-3
Malme-3M = test system: Malme-3M
SF-295 = test system: SF-295
786-0 = test system: 786-0
KM12 = test system: KM12
EKVX = test system: EKVX
UO-31 = test system: UO-31
CCRF-CEM = test system: CCRF-CEM
HL-60 = test system: HL-60
SK-MEL-2 = test system: SK-MEL-2
K562 = test system: K562

Measured: GI50

CCCCCCCCCCCCCCCC(=O)NCC(COP(=O)([O-])OCC[N+](C)(C)C)OCC (centres undefined)
inactive: OVCAR-5 10 µM | A498 > 10 µM | NCI-H460 2.96 µM | CAKI-1 19.7 µM | MOLT-4 3.24 µM | SNB-19 3.71 µM | SK-MEL-5 18.9 µM | SK-OV-3 18 µM | Malme-3M 16.9 µM | SF-295 5.2 µM | 786-0 2.54 µM | KM12 1.27 µM | EKVX 19.2 µM | UO-31 18.5 µM

OC12CCC3(OC4CCCCO4)c4ccccc4C3C1c1ccccc12 (centres undefined)
inactive: NCI-H460 35.2 µM | MOLT-4 35.4 µM | CCRF-CEM 58.9 µM | HL-60 30.3 µM | SNB-19 61.9 µM | SK-MEL-5 48.5 µM | SK-MEL-2 > 100 µM | SK-OV-3 > 100 µM | Malme-3M > 100 µM | SF-295 52.5 µM | 786-0 67.5 µM | KM12 54.6 µM | K562 46 µM | EKVX > 100 µM | UO-31 59.6 µM

Cn1cnc([N+](=O)[O-])c1Sc1nnnn1C
inactive: OVCAR-5 23.9 µM | A498 65.6 µM | NCI-H460 39.8 µM | CAKI-1 17.1 µM | MOLT-4 9.12 µM | CCRF-CEM 7.46 µM | SNB-19 > 100 µM | SK-MEL-5 17.3 µM | SK-MEL-2 16.9 µM | SK-OV-3 > 100 µM | Malme-3M 13.2 µM | SF-295 > 100 µM | 786-0 17.6 µM | KM12 56.9 µM | K562 16.7 µM | EKVX 18.3 µM | UO-31 15.3 µM

COc1ccc(NC(=O)CC(=O)N/N=C(\C)c2cc3ccccc3oc2=O)cc1
inactive: NCI-H460 > 100 µM | MOLT-4 > 100 µM | CCRF-CEM > 100 µM | HL-60 > 100 µM | SNB-19 > 100 µM | SK-MEL-5 > 100 µM | SK-OV-3 > 100 µM | Malme-3M > 100 µM | SF-295 > 100 µM | 786-0 > 100 µM | KM12 > 100 µM | K562 > 100 µM | EKVX > 100 µM | UO-31 > 100 µM

CN(C(=O)c1ccco1)C(=S)N1CCN(c2ccccc2)CC1
inactive: OVCAR-5 > 100 µM | NCI-H460 > 100 µM | CAKI-1 > 100 µM | MOLT-4 > 100 µM | CCRF-CEM > 100 µM | HL-60 > 100 µM | SNB-19 > 100 µM | SK-MEL-5 > 100 µM | SK-MEL-2 > 100 µM | SK-OV-3 > 100 µM | Malme-3M > 100 µM | SF-295 > 100 µM | 786-0 > 100 µM | KM12 > 100 µM | K562 > 100 µM | UO-31 > 100 µM

c1ccc(SC(Sc2ccccc2)=C2CCC2)cc1
inactive: A498 > 100 µM | NCI-H460 > 100 µM | CAKI-1 > 100 µM | MOLT-4 > 100 µM | CCRF-CEM > 100 µM | HL-60 > 100 µM | SNB-19 > 100 µM | SK-MEL-5 > 100 µM | SK-MEL-2 > 100 µM | SK-OV-3 > 100 µM | SF-295 > 100 µM | 786-0 > 100 µM | KM12 > 100 µM | K562 > 100 µM | EKVX > 100 µM | UO-31 > 100 µM

C=CCC1C(=O)CC2(C)CC(=O)C(CC=C)C12C (centres undefined)
inactive: OVCAR-5 > 100 µM | NCI-H460 > 100 µM | CAKI-1 > 100 µM | MOLT-4 > 100 µM | CCRF-CEM > 100 µM | HL-60 > 100 µM | SNB-19 > 100 µM | SK-MEL-5 > 100 µM | SK-OV-3 > 100 µM | Malme-3M > 100 µM | SF-295 > 100 µM | 786-0 > 100 µM | KM12 > 100 µM | K562 > 100 µM | EKVX > 100 µM | UO-31 > 100 µM

CC1=NN(C(=O)Nc2ccccc2)C(=O)C2CCC(=O)N12 (centres undefined)
inactive: A498 > 100 µM | NCI-H460 > 100 µM | CAKI-1 > 100 µM | MOLT-4 > 100 µM | CCRF-CEM > 100 µM | HL-60 > 100 µM | SNB-19 > 100 µM | SK-MEL-5 > 100 µM | SK-MEL-2 > 100 µM | SK-OV-3 > 100 µM | SF-295 > 100 µM | 786-0 > 100 µM | KM12 > 100 µM | K562 > 100 µM | EKVX > 100 µM | UO-31 > 100 µM

Cc1nc2sccn2c1C(=O)NN
inactive: OVCAR-5 > 100 µM | NCI-H460 > 100 µM | CAKI-1 > 100 µM | MOLT-4 > 100 µM | CCRF-CEM > 100 µM | HL-60 > 100 µM | SNB-19 > 100 µM | SK-MEL-5 > 100 µM | SK-MEL-2 > 100 µM | SK-OV-3 > 100 µM | Malme-3M > 100 µM | SF-295 > 100 µM | 786-0 > 100 µM | KM12 > 100 µM | K562 > 100 µM | EKVX > 100 µM

CCC12C=CCN(CCc3c([nH]c4ccccc34)/C=C\1)C2 (centres undefined)
inactive: A498 > 100 µM | NCI-H460 > 100 µM | CAKI-1 > 100 µM | MOLT-4 > 100 µM | CCRF-CEM > 100 µM | HL-60 > 100 µM | SNB-19 > 100 µM | SK-MEL-5 > 100 µM | SK-MEL-2 > 100 µM | Malme-3M > 100 µM | SF-295 > 100 µM | 786-0 > 100 µM | KM12 > 100 µM | K562 > 100 µM | EKVX > 100 µM | UO-31 > 100 µM

C[N+](C)(C)C1CC([N+](C)(C)C)C2c3ccccc3C21 (centres undefined)
inactive: OVCAR-5 > 100 µM | A498 > 100 µM | NCI-H460 > 100 µM | CAKI-1 > 100 µM | CCRF-CEM > 100 µM | HL-60 > 100 µM | SNB-19 > 100 µM | SK-MEL-5 > 100 µM | SK-OV-3 > 100 µM | Malme-3M > 100 µM | SF-295 > 100 µM | 786-0 > 100 µM | KM12 > 100 µM | K562 > 100 µM | EKVX > 100 µM | UO-31 > 100 µM

C/C(=N/O)c1ccc2c(c1)/C(=N/O)c1cc(/C(C)=N/O)ccc1-2
inactive: OVCAR-5 17.4 µM | NCI-H460 17.7 µM | CAKI-1 35.8 µM | MOLT-4 2.49 µM | HL-60 18.4 µM | SNB-19 13.8 µM | SK-MEL-5 14.9 µM | SK-MEL-2 23.9 µM | SK-OV-3 21.4 µM | Malme-3M 11 µM | SF-295 15.3 µM | 786-0 17.2 µM | KM12 16.3 µM | K562 17.8 µM | EKVX 7.13 µM | UO-31 15.1 µM

COc1ccc(C(=O)C(c2ccc(OC)cc2)C2(O)C(=O)Nc3c(C)cc(Cl)cc32)cc1 (centres undefined)
inactive: OVCAR-5 > 100 µM | A498 > 100 µM | NCI-H460 > 100 µM | MOLT-4 14.1 µM | CCRF-CEM 10.3 µM | HL-60 17.1 µM | SNB-19 > 100 µM | SK-MEL-2 > 100 µM | SK-OV-3 > 100 µM | Malme-3M > 100 µM | SF-295 54.8 µM | 786-0 > 100 µM | KM12 > 100 µM | K562 21.6 µM | EKVX > 100 µM | UO-31 > 100 µM
